Values joined by “and” are separate entries in the source; they are usually repeats but may differ in a detail not shown here. Equal values may be shown once. Toxic doses and inconclusive results are not listed.

For the assay, the system named is P388 leukemia ip, CD2F1 mice, survival T/C. The experiment in a line: NCI In Vivo Anticancer Drug Screen. Data for tumor model P388 Leukemia (intraperitoneal) in CD2F1 (CDF1) mice. The conditions noted are these: endpoint: median survival time, higher = longer survival. The procedure, abridged:
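Mice carrying the transplanted tumor received test compound or vehicle. Survival was recorded in each group, and the value is the treated-group measurement divided by that of the vehicle-treated control group.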

[1] abbreviates: dose: 100.0 mg/kg/injection, schedule: Q01DX001 (ip), vehicle: saline.
[2] abbreviates: dose: 200.0 mg/kg/injection, schedule: Q01DX001 (ip), vehicle: saline.
Setting [3] is: dose: 100.0 mg/kg/injection, schedule: Q04DX003 (ip), vehicle: saline.
[4] abbreviates: dose: 200.0 mg/kg/injection, schedule: Q04DX003 (ip), vehicle: saline.
Setting [5] is: dose: 50.0 mg/kg/injection, schedule: Q01DX005 (ip), vehicle: Klucel (hydroxypropylcellulose) (HPC).
Setting [6] is: dose: 100.0 mg/kg/injection, schedule: Q01DX005 (ip), vehicle: Klucel (hydroxypropylcellulose) (HPC).
The mark [7] stands for this setting: dose: 200.0 mg/kg/injection, schedule: Q01DX005 (ip), vehicle: Klucel (hydroxypropylcellulose) (HPC).
Where [8] appears, read: dose: 100.0 mg/kg/injection, schedule: Q01DX001 (ip), vehicle: saline with Tween-80.
[9] abbreviates: dose: 200.0 mg/kg/injection, schedule: Q01DX001 (ip), vehicle: saline with Tween-80.
Where [10] appears, read: dose: 400.0 mg/kg/injection, schedule: Q01DX001 (ip), vehicle: saline with Tween-80.
Setting [11] is: dose: 100.0 mg/kg/injection, schedule: Q01DX009 (ip), vehicle: Klucel (hydroxypropylcellulose) (HPC).
Where [12] appears, read: dose: 200.0 mg/kg/injection, schedule: Q01DX009 (ip), vehicle: Klucel (hydroxypropylcellulose) (HPC).
Setting [13] is: dose: 50.0 mg/kg/injection, schedule: Q01DX009 (ip), vehicle: Klucel (hydroxypropylcellulose) (HPC).

With `Clc1c2c(c(Cl)c3c1=Nc1ccc4ccccc4c1S3)=Nc1ccc3ccccc3c1S2`, the T/C (dose: 100.0 mg/kg/injection, schedule: Q04DX003 (ip), vehicle: saline with Tween-80) is 107 % of control; the T/C (dose: 200.0 mg/kg/injection, schedule: Q04DX003 (ip), vehicle: saline with Tween-80) is 113 % of control; the T/C (dose: 400.0 mg/kg/injection, schedule: Q04DX003 (ip), vehicle: saline with Tween-80) was 115 % of control.
In the case of `C[N+]1(C)CCCC(O)(C(=O)c2ccccc2)C1` (configuration not stated), the T/C is 98 % of control under setting [1] and 100 % of control under setting [2].
As to `NS(=O)(=O)c1cc(S(=O)(=O)Cl)ccc1Cl`, the T/C (dose: 12.5 mg/kg/injection, schedule: Q01DX005 (ip), vehicle: saline with Tween-80) was 100 % of control; the T/C (dose: 25.0 mg/kg/injection, schedule: Q01DX005 (ip), vehicle: saline with Tween-80) was 100 % of control; the T/C (dose: 50.0 mg/kg/injection, schedule: Q01DX005 (ip), vehicle: saline with Tween-80) was 99 % of control and 94 % of control.
As for `O=c1[nH]/c(=C/c2ccc(CO)o2)c(=O)[nH]/c1=C\c1ccc(CO)o1`, the T/C was 90 % of control (dose: 12.5 mg/kg/injection, schedule: Q01DX009 (ip), vehicle: distilled water + Tween-80); 89 % of control (dose: 25.0 mg/kg/injection, schedule: Q01DX009 (ip), vehicle: distilled water + Tween-80); 87 % of control (dose: 50.0 mg/kg/injection, schedule: Q01DX009 (ip), vehicle: distilled water + Tween-80); 87 % of control (dose: 100.0 mg/kg/injection, schedule: Q01DX009 (ip), vehicle: distilled water + Tween-80); 90 % of control (dose: 200.0 mg/kg/injection, schedule: Q01DX009 (ip), vehicle: distilled water + Tween-80).
In the case of `CN1CCC/C1=C/C(=O)c1ccccc1`, the T/C runs as follows: under setting [3], 100 % of control; under setting [4], 111 % of control.
Turning to `O=C(O)CCSCCCCCCCCCCSCCC(=O)O`, the T/C by setting is: under setting [5], 98 % of control; under setting [6], 93 % of control; under setting [7], 86 % of control.
Regarding `COc1ccc(/C=C/C(=O)C(C)(CN(C)C)CN(C)C)cc1`, the T/C is 123 % of control (dose: 30.0 mg/kg/injection, schedule: Q01DX005 (ip), vehicle: saline) and 121 % of control (dose: 120.0 mg/kg/injection, schedule: Q01DX005 (ip), vehicle: saline).
For the compound `NC(=S)c1cccc(/C=N/Nc2ccc([N+](=O)[O-])cc2[N+](=O)[O-])c1`, the T/C reads like this: under setting [1], 99 % of control; under setting [2], 105 % of control; (dose: 400.0 mg/kg/injection, schedule: Q01DX001 (ip), vehicle: saline) 96 % of control.
For the compound `Cc1ccc(S(=O)(=O)NCc2cccc([N+](=O)[O-])c2)cc1`, the T/C is, setting by setting: (dose: 60.0 mg/kg/injection, schedule: Q01DX005 (ip), vehicle: Klucel (hydroxypropylcellulose) (HPC)) 94 % of control; (dose: 120.0 mg/kg/injection, schedule: Q01DX005 (ip), vehicle: Klucel (hydroxypropylcellulose) (HPC)) 104 % of control; (dose: 240.0 mg/kg/injection, schedule: Q01DX005 (ip), vehicle: Klucel (hydroxypropylcellulose) (HPC)) 98 % of control.
As to `O=NN(CCCl)C(=O)N(CCCl)C(=O)Oc1c(Cl)cc(Cl)cc1Cl`, the T/C (dose: 25.0 mg/kg/injection, schedule: Q01DX001 (ip), vehicle: saline with Tween-80) is 122 % of control; the T/C under setting [8] is 150 % of control; the T/C under setting [9] is 179 % of control and 193 % of control; the T/C under setting [10] is 199 % of control.
With `CCOC(=O)c1ccc(NC(C)=O)cc1`, the T/C reads like this: under setting [11], 100 % of control; under setting [12], 107 % of control; (dose: 400.0 mg/kg/injection, schedule: Q01DX009 (ip), vehicle: Klucel (hydroxypropylcellulose) (HPC)) 112 % of control.
As to `CCOC(=O)C[CH2][Sn]([Cl])([Cl])[Cl]`, the T/C runs as follows: under setting [3], 100 % of control; under setting [4], 103 % of control.
As for `Cc1ccc(Nc2nnc(CSc3ccc(Cl)cc3)s2)c(S(=O)(=O)O)c1`, the T/C (dose: 60.0 mg/kg/injection, schedule: Q01DX005 (ip), vehicle: saline with Tween-80) was 104 % of control; the T/C (dose: 120.0 mg/kg/injection, schedule: Q01DX005 (ip), vehicle: saline with Tween-80) was 94 % of control; the T/C (dose: 240.0 mg/kg/injection, schedule: Q01DX005 (ip), vehicle: saline with Tween-80) was 104 % of control.
On to `O=C(O)C1=C(C=C(c2ccccc2)c2ccccc2)OCCC1`, for which the T/C (dose: 12.5 mg/kg/injection, schedule: Q01DX009 (ip), vehicle: saline with Tween-80) is 92 % of control; the T/C (dose: 25.0 mg/kg/injection, schedule: Q01DX009 (ip), vehicle: saline with Tween-80) is 90 % of control; the T/C (dose: 50.0 mg/kg/injection, schedule: Q01DX009 (ip), vehicle: saline with Tween-80) is 91 % of control; the T/C (dose: 200.0 mg/kg/injection, schedule: Q01DX009 (ip), vehicle: saline with Tween-80) is 97 % of control.
On to `O=S1(=O)C2C=CC1C(Br)C(Br)CC2` (configuration not stated), for which the T/C runs as follows: (dose: 12.5 mg/kg/injection, schedule: Q01DX009 (ip), vehicle: Klucel (hydroxypropylcellulose) (HPC)) 102 % of control; (dose: 25.0 mg/kg/injection, schedule: Q01DX009 (ip), vehicle: Klucel (hydroxypropylcellulose) (HPC)) 100 % of control; under setting [13], 89 % of control; under setting [11], 96 % of control; under setting [12], 98 % of control.
As for `c1c[nH]c(C2Nc3ccccc3CO2)c1` (configuration not stated), the T/C by setting is: under setting [5], 115 % of control; under setting [6], 107 % of control; under setting [7], 112 % of control.
On to `CC(C)C(=O)CCC(=O)O`, for which the T/C (dose: 50.0 mg/kg/injection, schedule: Q01DX005 (ip), vehicle: saline) was 106 % of control; the T/C (dose: 100.0 mg/kg/injection, schedule: Q01DX005 (ip), vehicle: saline) was 97 % of control; the T/C (dose: 200.0 mg/kg/injection, schedule: Q01DX005 (ip), vehicle: saline) is 98 % of control.
For `COc1ccc(C(=O)c2coc3cc4c(cc23)OCO4)c(O)c1`, the T/C runs as follows: (dose: 50.0 mg/kg/injection, schedule: Q01DX001 (ip), vehicle: Klucel (hydroxypropylcellulose) (HPC)) 88 % of control; (dose: 100.0 mg/kg/injection, schedule: Q01DX001 (ip), vehicle: Klucel (hydroxypropylcellulose) (HPC)) 88 % of control; (dose: 200.0 mg/kg/injection, schedule: Q01DX001 (ip), vehicle: Klucel (hydroxypropylcellulose) (HPC)) 88 % of control.
As to `CCN(CC)C(=O)C1CN2CCc3cc(OC)c(OC)cc3C2CC1O` (configuration not stated), the T/C is, setting by setting: under setting [5], 104 % of control and 108 % of control; under setting [6], 106 % of control and 109 % of control; under setting [7], 123 % of control.
On to `Cc1ccc2c(C)cc(=O)oc2c1`, for which the T/C is 102 % of control under setting [3]; 105 % of control under setting [4]; 108 % of control (dose: 400.0 mg/kg/injection, schedule: Q04DX003 (ip), vehicle: saline).
Turning to `CCC[N+]1([O-])CCOCC1`, the T/C by setting is: (dose: 50.0 mg/kg/injection, schedule: Q01DX009 (ip), vehicle: saline) 102 % of control; (dose: 100.0 mg/kg/injection, schedule: Q01DX009 (ip), vehicle: saline) 100 % of control; (dose: 200.0 mg/kg/injection, schedule: Q01DX009 (ip), vehicle: saline) 94 % of control.
As to `NC(=O)c1cc(C(N)=O)n(C2OC(CO)C(O)C2O)n1` (configuration not stated), the T/C reads like this: (dose: 30.0 mg/kg/injection, schedule: Q04DX002 (ip), vehicle: saline) 98 % of control and 99 % of control; (dose: 60.0 mg/kg/injection, schedule: Q04DX002 (ip), vehicle: saline) 104 % of control and 93 % of control; (dose: 120.0 mg/kg/injection, schedule: Q04DX002 (ip), vehicle: saline) 98 % of control and 93 % of control.
For the compound `CCOC(=O)CN1CN(CCCN(C)C)CC(C)(C)C1OCC` (configuration not stated), the T/C is 108 % of control (dose: 15.0 mg/kg/injection, schedule: Q01DX009 (ip), vehicle: saline with Tween-80); 98 % of control (dose: 30.0 mg/kg/injection, schedule: Q01DX009 (ip), vehicle: saline with Tween-80); 99 % of control (dose: 60.0 mg/kg/injection, schedule: Q01DX009 (ip), vehicle: saline with Tween-80).
Regarding `CCCC(Cc1ccccc1)C(=O)O` (configuration not stated), the T/C by setting is: under setting [8], 123 % of control; under setting [9], 108 % of control; under setting [10], 124 % of control.
As to `O=C(Cc1ccccc1)Nc1ncc([N+](=O)[O-])s1`, the T/C runs as follows: under setting [13], 116 % of control; under setting [11], 106 % of control; under setting [12], 100 % of control.

(Values after PubChem BioAssay AID330 (DTP/NCI, 2004).)
